According to US4814336A, “Method of treating a vascular obstructive lesion resulting from restricted blood circulation” (CHINOIN Gyogyszer es Vegyeszeti Termekek Gyara Rt, priority 1985, dated 1989):

Key:
[1] = tested on: patients suffering from cerebral obliterating vascular diseases; experiment: EEG examination; format: in vivo, human patients; details: 450 mg/day orally, 10 days; for EEG deteriorated (number of patients) / EEG improved (number of patients) / EEG unchanged (number of patients): total 9 (Trental), 8 (Depogen)
Method: (§1) The clinical examinations carried out on patients suffering from lower leg and cerebral obliterating vascular diseases gave the following results: 41 patients were treated for 10 days in a dose of 450 mg/day Depogen or Trental orally (beside 5 healthy controls).

[2] = tested on: erythrocytes stored for 30 days; experiment: In vitro filtrability (filtration half-time T1/2) of erythrocytes stored for 30 days, method of Teitel; format: cell-based, human; details: from ID50
Method: FIG. 2 is a set of two graphs in which the filtration half-time (T1/2) for erythrocytes stored for 30 days are plotted along the Y-axis as a percentage of the filtration half-time for normal erythrocytes (control) against doses of respectively Trental and Depogen.
(§2) For the examination of the in vitro filtrability of the erythrocytes the method of Teitel (Nouv. Rev. Franc. Haematol. 7. 195 (1967)) was used where the filtration rate of concentrated erythrocyte suspension was measured. In the test fresh, normal erythrocytes, fresh in hyperosmotic solution shrunken erythrocytes and erythrocytes stored in CPD blood-conserving solution contracted for 30 days at +4° C. were used. The results are given in FIGS. 1 and 2 (the filtrability of the contracted erythrocytes and that of the erythrocytes stored for 30 days were given as the % of the filtrability of the control fresh, normal erythrocytes.)
(§3) The effect depends in the case of both drugs on the doses. The optimal effect may be achieved with Depogen in lower concentration interval (0.5 to 1.5 μumol) than in case of Trental (5 to 10 μumoles).

[3] = tested on: patients suffering from cerebral obliterating vascular diseases; experiment: ECHO examination; format: in vivo, human patients; details: 450 mg/day orally, 10 days; for ECHO deteriorated (number of patients) / ECHO improved (number of patients) / ECHO unchanged (number of patients): total 9 (Trental), 8 (Depogen)
Method: as §1

[4] = tested on: erythrocytes of patients with lower leg and cerebral obliterating vascular diseases; experiment: Erythrocyte filtrability (T1/2) of patients with lower leg and cerebral obliterating vascular diseases after 10 days treatment; format: in vivo, human patients; details: 450 mg/day orally; for T1/2 average of erythrocyte filtration after treatment: before treatment 18.15 min, healthy control 8.7 min
Method: as §1

[5] = tested on: contracted (shrunken) erythrocytes; experiment: In vitro filtrability (filtration half-time T1/2) of contracted (shrunken) erythrocytes, method of Teitel; format: cell-based, human; details: from ID50
Method: FIG. 1 is a set of two graphs in which the filtration half-times (T1/2) for contracted (shrunken) erythrocytes are plotted along the Y-axis as a percentage of the filtration half-time for normal erythrocytes (control) against doses of respectively Trental and Depogen.
as §2, §3

[6] = tested on: patients suffering from lower leg obliterating vascular diseases; experiment: Clinical examination, lower leg obliteration; format: in vivo, human patients; details: 450 mg/day orally, 10 days; Depogen compared with Trental
Method: as §1

[7] = tested on: extremital vascular resistence; details: patients, doses up to 300 mg/day; cited from earlier work
erythrocytes [8] = experiment: In vitro filtrability of erythrocytes (filtration half-time), statements on both erythrocyte types; format: cell-based, human; details: for filtrability of the erythrocytes (result in words): FIGS. 1 and 2, T1/2 decreased
Method: as §2, §3

[9] = tested on: patients suffering from cerebral obliterating vascular diseases; experiment: Clinical examination, cerebral obliterating vascular disease, symptoms; format: in vivo, human patients; details: 450 mg/day orally, 10 days
Method: as §1

erythrocytes [10] = details: Angiology 36, 4, 226-234 (1985); cited from earlier work

| SMILES | EEG improved (% of patients) [1] [%] | EEG unchanged (% of patients) [1] [%] | EEG deteriorated (number of patients) [1] | EEG improved (number of patients) [1] | EEG unchanged (number of patients) [1] | ECHO unchanged (% of patients) [3] [%] | ECHO deteriorated (number of patients) [3] | ECHO improved (number of patients) [3] | ECHO unchanged (number of patients) [3] | filtrability of the erythrocytes after treatment (result in words) [4] | T1/2 average of erythrocyte filtration after treatment [4] [min] | effect in lower leg obliteration [6] | filtrability of the erythrocytes (result in words) (erythrocytes [8]; in vitro) | also measured |
| --- | --- | --- | --- | --- | --- | --- | --- | --- | --- | --- | --- | --- | --- | --- |
| CCOc1ccc(CC2=NCCc3cc(OCC)c(OCC)cc32)cc1OCC [Depogen, 1-(3',4'-diethoxybenzyl)-6,7-diethoxy-3,4-dihydroisoquinolinium-theophyllin-7-acetate] | 87.5 | 12.5 | 0 | 7 | 1 | 87.5 | 0 | 1 | 7 | the filtrability of the erythrocytes has been normalized | 9.53 | the two drugs have the same effect | increase the filtrability of the erythrocytes significantly | Rel. activity Depogen/Trental [2]: 31.6; ECHO improved (% of patients) [3]: 12.5%; Rel. activity Depogen/Trental [5]: 16.3; peripheral vasodilating effect and extremital vascular resistence [7]: has a peripheral vasodilating effect and decreases the extremital vascular resistence; times lower concentration exerting the same effect as Trental (erythrocytes [8]; in vitro, concentration for the half-maximal effect): 10 to 25 times; optimal effect on filtrability, concentration interval (erythrocytes [8]; in vitro, Depogen): 0.5 to 1.5 μumol; filtrability of pathological human erythrocytes (result in words) (erythrocytes [8]; proved by both ex vitro and in vivo tests): increases the filtrability of the pathological human erythrocytes significantly; effect in cerebral vascular disease, symptoms [9]: the symptoms have decreased |
| CC(=O)CCCCn1c(=O)c2c(ncn2C)n(C)c1=O [Trental, 3,7-dihydro-3,7-dimethyl-1--(5-oxohexyl)-1H-purine-2,6-dione, reference compound] | 44.5 | 55.5 | 0 | 4 | 5 | 100 | 0 | 0 | 9 | the treatment was also in this case successful | 12.1 | the two drugs have the same effect | increase the filtrability of the erythrocytes significantly | rheological parameters of the blood, plasticity of the erythrocytes (erythrocytes [10]): improves some rheological parameters of the blood, first of all the plasticity of the erythrocytes; optimal effect on filtrability, concentration interval (erythrocytes [8]; in vitro, Trental): 5 to 10 μumoles |
